Data as given in US9289509B2, “Uses of immunoconjugates targeting CD138” (Biotest AG, priority 2009, dated 2016).
Read-outs that look alike come from different tables or passages of the source.

How the values were obtained:
[1] = system: primary mammary tumor of a patient; details: for T/C: day 21
Text: In accordance with the CD138 expression analysis (Immunohistochemistry analysis on tumor tissue microarrays) tumor candidates were selected from a primary tumor collection, that is, from patient derived tumors.
NMRI (nude) mice were implanted (bilateral) with primary mammary tumor of a patient (determined via IHC analysis as CD138 strong positive). A breast carcinoma skin metastasis was taken stage M1. […] The tumor was estrogen receptor negative and progesterone receptior negative.
Tumor diameters were measured two times a week. Tumor volumes were calculated according to the formula a*b*b/2, with “a” being the longest axis and “b” the perpendicular axis thereto. Inhibition of tumor volume in the test groups relative to the vehicle control group was calculated as the ratio of the median relative tumor volumes (T/C).

CD138+ MOLP-8 cells = experiment: Cell viability assay (WST)

With BT062 the T/C ([1]; 13.25 mg/kg/4 mg/kg) was 0.0, the T/C ([1]; 23.85 mg/kg) was 0.0 and the “tolerability / body weight” value ([1]; after each injection) was “well tolerated, having no influence on body weight”. The T/C value ([1]; both treatment groups) was “below 10%”, the tumor regrowth ([1]; treatment free observation period, 39 days after last administration) was “no tumor regrowth was detected” and the “time to complete remission” value ([1]; weekly administration) was 21 days. The cytotoxic activity (CD138+ MOLP-8 cells; 5 days incubation, WST (FIG. 7)) was “very similar” and the “cytotoxicity after preincubation with molar excess of unconjugated nBT062” value (CD138+ MOLP-8 cells; blocking antibody 1 μM nBT062 (FIG. 7D)) was “substantially blocked”.
